From publication PMC12087874, “Biaryl Phosphates and Phosphonates as Selective Inhibitors of the Transcription Factor STAT4” (Angewandte Chemie (International Ed. in English), 2025) come the findings set out here.

The structures appear in SMILES notation. Where “and” joins values, the source holds several entries; their conditions need not be identical. Equal entries are not always repeated.

The target in assay [1] is T1, STAT4 (Homo sapiens, UniProt Q14765).
T1 sequence (Q14765 1-748): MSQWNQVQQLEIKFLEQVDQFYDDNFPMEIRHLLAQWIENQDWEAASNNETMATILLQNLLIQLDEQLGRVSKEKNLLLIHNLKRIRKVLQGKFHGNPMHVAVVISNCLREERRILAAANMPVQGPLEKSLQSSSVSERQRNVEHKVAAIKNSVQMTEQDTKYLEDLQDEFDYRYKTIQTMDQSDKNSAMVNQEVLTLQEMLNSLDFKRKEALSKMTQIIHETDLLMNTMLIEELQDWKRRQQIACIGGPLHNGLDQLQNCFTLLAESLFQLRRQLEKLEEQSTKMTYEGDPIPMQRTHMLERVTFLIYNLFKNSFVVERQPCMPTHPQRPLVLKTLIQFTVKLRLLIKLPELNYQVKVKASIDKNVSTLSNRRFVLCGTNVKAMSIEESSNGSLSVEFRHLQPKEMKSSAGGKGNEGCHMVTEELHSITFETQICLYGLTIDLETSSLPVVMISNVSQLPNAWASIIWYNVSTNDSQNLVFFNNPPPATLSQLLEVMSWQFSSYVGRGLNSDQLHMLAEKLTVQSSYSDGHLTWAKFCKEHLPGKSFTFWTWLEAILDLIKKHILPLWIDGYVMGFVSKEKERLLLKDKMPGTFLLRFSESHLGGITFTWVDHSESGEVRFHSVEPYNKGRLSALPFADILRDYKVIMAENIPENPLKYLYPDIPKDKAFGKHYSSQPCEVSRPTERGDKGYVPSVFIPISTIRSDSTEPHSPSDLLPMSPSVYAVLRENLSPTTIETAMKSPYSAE
Put plainly: Competitive fluorescence polarization (FP) assay, STAT4 SH2 domain. Format: binding. The note with it: for Ki / IC50: FP assay, mean ± SD, n = 3; for Ki: tracer 5-carboxyfluorescein-GpYLPQNID-OH, Ki derived from IC50, read-out: STAT4 K i. How it is done: Fluorescence polarization assays
Competitive fluorescence polarization assays, which measure the abilities of test compounds (dissolved in DMSO) to displace a fluorescent-labeled peptide from the SH2 domain of a STAT protein, were carried out essentially as described. Proteins were used at the following final concentrations: 23 nM or 28 nM for STAT4; between 56 nM and 91 nM for STAT1; 107 nM or 110 nM for STAT3; between 131 nM and 177 nM for STAT5a; between 62 nM and 85 nM for STAT5b; and 101 nM or 106 nM for STAT6. These concentrations represent the approximate […]
dissociation constant for peptide binding of the respective protein batches used in the assays.
The following peptides were used: 5-carboxyfluorescein-GpYLPQNID-OH for STAT4; 5-carboxyfluorescein-GpYDKPHVL for STAT1; 5-carboxyfluorescein-GpYLPQTV-NH2 for STAT3; 5-carboxyfluorescein-GpYLVLDKW for STAT5a/b, and 5-carboxyfluorescein- […]
Gp[…]-OH for STAT6. All peptides were used at a final concentration of 10 nM. The buffer consisted of 10 mM Tris (pH 8.0), 50 mM NaCl, 1 mM EDTA, 1 mM DTT, 0 .1 % Nonidet P-40 substitute, and 2 % DMSO. After incubation of protein and test compound for 1 h at room temperature, the fluorescent -labeled peptide was added. Samples were transferred to 384 - well microtiter plates and fluorescence polarization was read after an additional 60 min of incubation time. Measurements were performed in triplicate. Percent binding was calculated based on a logarithmic curve fit using OriginPro 8G software. IC 50 values were converted to Ki-values via the published equation[3] using the corresponding Excel spread sheet […]
https://websites.umich.edu/~shaomengwanglab/software/calc_ki/index.html .
Error bars represent standard deviations. Ligand efficiencies (LE) were calculated by the formula LE = -1,37 x log Ki / number of non-hydrogen atoms.[4] […]

For assay [2], the target named is T1, STAT4. In words: CETSA of STAT4 in lysates from NK-92 cells. To be noted: 100 µM; for ΔT agg of STAT4 / T agg of STAT4 (average): CETSA, NK-92 cell lysates; for ΔT agg of STAT4: versus DMSO control; for T agg of STAT4 (average): DMSO control 48.7 ± 0.5 °C, n = 3; for Tagg (STAT4) 3 independent experiments: individual CETSA experiments, in °C (unit assumed). Also on record: utilizing cellular lysates from the STAT4‐expressing natural killer cell line NK‐92; endogenous in cells; host or cells: NK-92 (DSMZ). It counts as binding. How it is done:
NK-92 cells (DSMZ) were cultured in α-MEM containing 12.5% fetal bovine serum (FBS), 12.5% horse serum, 2 mM L-glutamine, penicillin/streptomycin and 50 U/ml IL -2. […]
NK-92 cell lysates were prepared for CETSA experiments by washing cultured cells once with TBS and resuspending in TBS supplemented with Halt Protease In hibitor Cocktail, EDTA-free (Fisher Scientific) at 3 x 10^6 cells per 100 µl. […]
CETSA experiments were performed essentially using the published protocol. Briefly, NK-92 cell lysates were incubated with test compound or DMSO for 15 min at room temperature (final DMSO concentration 2%). During this time, the treated lysate was divided into 10x 50 µl aliquots in 0.2 ml reaction tubes. Samples were then heated to the designated temperatures in a Veriti Pro Thermocycler (Thermo Fishe r Scientific) for 3 min, followed by 3 min incubation at room temperature, and then placed on ice. The samples were transferred to 1.5 ml tubes before centrifugation at 20,000 g for 20 min at 4 °C, to remove aggregated proteins. The soluble fractions were subsequently analyzed by Western blotting.
The components of cell lysates from treated cells, or heat-treated lysates from CETSA, were separated by SDS-PAGE (10%), transferred to nitrocellulose membrane (Bio-Rad) and detected using monoclonal rabbit primary antibodies (Cell Signaling), α-rabbit-HRP secondary antibody (Dako) and Western Lightning Plus chemiluminescence reagent (Perkin Elmer).
Bands were visualized using an ImageQuant system (GE Healthcare) and quantitated using ImageJ software (NIH). […]
The sitting drop was composed of 0.1 µl protein solution and 0.1 µl reservoir solution. Plates were stored at 19°C in a protein […]
In the first set of experiments, w e tried to crystallize STAT4 as a SUMO -STAT4 fusion protein […]
was cleaved off as described above.
Screening for crystallization conditions for tag-free STAT4 was performed both in the absence or presence of 1 equivalent of 6m or 6h. Since the chosen protein concentration of 3.6 mg/ml appeared to be too low, screening was repeated with a higher concentration of 6.4 mg/ml STAT4 for all conditions (corresponding to 100 µM 6m). Both the SUMO-STAT4 and the tag-free STAT4 preferentially precipitated under conditions containing polyethylene glycol. In one set of experiments, we also screened for conditions in the presence of the high-affinity peptide GY(PO3H2)LPQNID adapted from the IL-12 receptor. However, none of the conditions resulted in the growth of STAT4 crystals (Table S4).

For `O=P(O)(O)Oc1ccc(-c2ccccc2)cc1` [Compound 1, para‐biphenyl phosphate], at STAT4 [1], the Ki turned out to be 1100 ± 100 nM and the IC50 is 2300 ± 200 nM. For the same molecule, on STAT4 [1] (FP assays, Ki ratio), the “selectivity for STAT4 over the SH2 domain of STAT5a” value is roughly 20 fold; the “selectivity for STAT4 over the SH2 domain of STAT5b” value was roughly 40 fold; the “selectivity for STAT4 over the SH2 domains of STAT1, STAT3, and STAT6” value is 7–8 fold.
For `O=P(O)(O)Oc1ccc(-c2ccc3ccccc3c2)cc1` [Compound 6g], at STAT4 [1], the Ki was found to be 440 ± 90 nM and the IC50 is 950 ± 190 nM.
For `O=P(O)(O)Oc1ccc(-c2ccccc2)cc1F` [Compound 6h] the same measures were 560 ± 80 nM and 1200 ± 200 nM.
With `O=P(O)(O)Oc1ccc(-c2ccc3ccccc3c2)cc1F` [Compound 6m], at STAT4 [1], the Ki stood at 350 ± 10 nM and the IC50 amounted to 760 ± 10 nM. Besides, the “selectivity for STAT4 over other STAT proteins” value at STAT4 [1] (FP assays) is 10–70 fold.
On to `O=P(O)(O)C(F)(F)c1ccc(-c2ccc3ccccc3c2)cc1F` [Compound 8a], for which, on STAT4 [2], the “ΔT agg of STAT4” value came to 1.1 °C; the “T agg of STAT4 (average)” value was 49.8 ± 0.1 °C and 49.8 °C; the “Tagg (STAT4) 3 independent experiments” value is 49.9 and 49.7 and 49.8. Moreover, at STAT4 [1], the Ki stood at 4000 ± 500 nM and the IC50 was 8500 ± 1000 nM.
On to `Cc1cc(-c2ccc(C(F)(F)P(=O)(O)O)c(F)c2)cs1` [Compound 8k], for which, on STAT4 [2], the “ΔT agg of STAT4” value stood at 1.3 °C; the “T agg of STAT4 (average)” value is 50.0 ± 0.5 °C and 50.0 °C; the “Tagg (STAT4) 3 independent experiments” value was 50.5 and 49.6 and 49.8. On STAT4 [1], the Ki worked out at 1700 ± 200 nM and the IC50 came out at 3700 ± 400 nM. Also, on STAT4 [1] (LE = -1,37 x log Ki / number of non-hydrogen atoms, STAT4 Ki), the ligand efficiency stood at 0.39 kcal/mol.
